Patent publication US9149532B2, “Pharmaceutical composition” (DAIICHI SANKYO COMPANY, LIMITED, priority 2007, dated 2015)

Key:
[1] = Absorbability after oral administration; assay type: in vivo; conditions: orally administered to a subject
[2] = Solubility of compound (1) in aqueous solutions; assay type: physicochemical

- absorbability [1]: excellent absorbability
- solubility ([2]; neutral pH aqueous solution (e.g., neutral buffer solution)): solubility decreases
- solubility ([2]; strong acidic aqueous solution): high solubility
Structure (SMILES): CN1CCc2nc(C(=O)N[C@@H]3C[C@@H](C(=O)N(C)C)CC[C@@H]3NC(=O)C(=O)Nc3ccc(Cl)cn3)sc2C1 [compound (1), N^1-(5-chloropyridin-2-yl)-N^2-(4-[(dimethylamino)carbonyl]-2-{[(5-methyl-4,5,6,7-tetrahydrothiazolo[5,4-c]pyridin-2-yl)carbonyl]amino}cyclohexyl)ethanediamide]
